Assay results from ChEMBL document CHEMBL3352084, “Bioactive compounds from the insect Aspongopus chinensis” (Bioorg Med Chem Lett, 2014).
Activity calls are given as the source filed them. The calls are words filed in the database; no cut-off is given here.

Legend:
[1] = target: Prostaglandin G/H synthase 2 (Homo sapiens, UniProt P35354); experiment: Inhibition of human recombinant COX2 pre-incubated for 15 mins before arachidonic acid addition by fluorescence micro plate reader method
[2] = Retention time of the compound by […] method; format: physicochemical
Rattus norvegicus [3] = experiment: Inhibition of high glucose-induced collagen 4 production in rat renal mesangial cells dosed for 1 hr before 30 mM D-glucose stimulation for 24 hrs by ELISA; format: functional
Rattus norvegicus [4] = experiment: Inhibition of high glucose-induced fibronectin production in rat renal mesangial cells dosed for 1 hr before 30 mM D-glucose stimulation for 24 hrs by ELISA; format: functional
Rattus norvegicus [5] = experiment: Inhibition of high glucose-induced IL6 production in rat renal mesangial cells dosed for 1 hr before 30 mM D-glucose stimulation for 24 hrs by ELISA; format: functional

Sequence of Prostaglandin G/H synthase 2 (P35354 whole entry, looked up): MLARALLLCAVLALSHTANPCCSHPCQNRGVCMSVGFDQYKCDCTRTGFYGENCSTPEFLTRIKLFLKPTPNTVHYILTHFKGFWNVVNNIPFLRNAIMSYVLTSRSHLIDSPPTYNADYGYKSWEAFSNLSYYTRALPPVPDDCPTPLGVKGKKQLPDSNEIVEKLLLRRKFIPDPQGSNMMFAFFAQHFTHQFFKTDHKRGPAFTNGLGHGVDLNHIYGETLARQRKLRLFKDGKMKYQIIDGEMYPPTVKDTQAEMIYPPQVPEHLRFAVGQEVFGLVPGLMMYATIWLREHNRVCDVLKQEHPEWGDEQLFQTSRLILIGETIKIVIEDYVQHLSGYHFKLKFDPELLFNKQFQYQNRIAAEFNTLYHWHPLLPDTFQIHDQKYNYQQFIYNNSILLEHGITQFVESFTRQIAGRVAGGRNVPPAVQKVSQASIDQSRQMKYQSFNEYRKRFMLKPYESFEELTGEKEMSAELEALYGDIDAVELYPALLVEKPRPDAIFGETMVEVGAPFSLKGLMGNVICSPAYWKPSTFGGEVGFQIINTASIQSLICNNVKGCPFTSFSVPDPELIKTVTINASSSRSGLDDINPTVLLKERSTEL

Compound | IC50 [1] [µM] | Retention_time [2] [min] | inhibition (Rattus norvegicus [3]) | inhibition (Rattus norvegicus [4]) | inhibition (Rattus norvegicus [5])
CC(=O)/C=C/c1ccc(O)c(O)c1 | 22.2 |  |  |  | 
C/C(=C/CCC(C)c1cc(O[C@@H]2O[C@H](CO)[C@@H](O)[C@H](O)[C@H]2O)c(O)cc1C)C(=O)O (some centres not stated) |  | 25.461 |  |  | 
CC(=O)NCCc1ccc(O)c(O)c1 | 18.9 |  |  |  | 
CC(=O)NC[C@@H](OC[C@H](O)CO)c1ccc(O)c(O)c1 | 117 |  |  |  | 
CC(=O)N/C=C\c1ccc2c(c1)OC(c1ccc(O)c(O)c1)C(NC(C)=O)O2 (configuration not stated) | 6.5 |  | Active | Active | Active
CC(=O)N/C=C\c1ccc2c(c1)OC(NC(C)=O)C(c1ccc(O)c(O)c1)O2 (configuration not stated) |  |  | Active | Active | Active
CCc1nc(C)ccc1O |  |  | Active | Active | Active
CC(C)C[C@@H]1NC(=O)[C@H](Cc2c[nH]c3ccccc23)NC1=O |  |  | Active | Active | Active
